Calls of active or inactive are those of the source.
Experiments:
[1] = tested on: A549; assay: Antiproliferative activity against human A549 cells incubated for 72 hrs by CCK8 assay; format: functional, cell-based; settings: A549, 72 h
[2] = tested on: HCC827; assay: Antiproliferative activity against human HCC827 cells incubated for 72 hrs by CCK8 assay; format: functional, cell-based; settings: HCC827, 72 h
[3] = tested on: PC-9; assay: Antiproliferative activity against human PC-9 cells incubated for 72 hrs by CCK8 assay; format: functional, cell-based; settings: PC-9, 72 h
[4] = tested on: NCI-H3255; assay: Antiproliferative activity against human NCI-H3255 cells incubated for 72 hrs by CCK8 assay; format: functional, cell-based; settings: NCI-H3255, 72 h
[5] = tested on: NCI-H1975; assay: Antiproliferative activity against human NCI-H1975 cells incubated for 72 hrs by CCK8 assay; format: functional, cell-based; settings: NCI-H1975, 72 h
[6] = tested on: L02; assay: Antiproliferative activity against human HL7702 cells incubated for 72 hrs by CCK8 assay; format: toxicity, cell-based; settings: l02, 72 h
[7] = tested on: PC-9; assay: Antiproliferative activity against Gefitinib-resistant human PC-9 cells incubated for 72 hrs by CCK8 assay; format: functional, cell-based
[8] = target: T1, Microtubule-associated protein 1 light chain 3 beta/Epidermal growth factor receptor (Homo sapiens, UniProt P00533+Q9GZQ8); assay: ATTEC activity at LC3B/EGFR in human HCC827 cells assessed as protein degradation by immunoblot analysis; format: cell-based
[9] = target: T1, Microtubule-associated protein 1 light chain 3 beta/Epidermal growth factor receptor; assay: ATTEC activity at LC3B/EGFR in human HCC827 cells assessed as protein degradation at 3.3 uM by immunoblot analysis relative to control; format: cell-based
[10] = tested on: PC-9; assay: In vivo ATTEC activity at LC3B/EGFR in human PC-9 cells implanted in NOD-SCID mouse assessed as protein degradation at 20 mg/kg, ip measured after 24 hrs by Western blot analysis; format: functional, organism-based
[11] = target: T1, Microtubule-associated protein 1 light chain 3 beta/Epidermal growth factor receptor; assay: ATTEC activity at LC3B/EGFR in human HCC827 cells assessed as protein degradation at 0.33 uM by immunoblot analysis relative to control; format: cell-based
[12] = target: T1, Microtubule-associated protein 1 light chain 3 beta/Epidermal growth factor receptor; assay: ATTEC activity at LC3B/EGFR in human HCC827 cells assessed as protein degradation at 0.11 uM by immunoblot analysis relative to control; format: cell-based

Compound	IC50 [1]	IC50 [2]	IC50 [3]	IC50 [4]	IC50 [5]	Activity [6]	Activity [7]	DC50 [8]	Emax [9]	Activity [10]	Emax [11]	Emax [12]
COc1cc2ncnc(Nc3ccc(F)c(Cl)c3)c2cc1OCCOCCOCCOCCNC(=O)COc1c(Br)cc(/C=C2\C(=O)Nc3ccccc32)cc1Br	> 10 µM	1.72 µM	1.09 µM	1.43 µM	> 10 µM	Non-Toxic	Active	> 10 µM	26%			
COc1cc2ncnc(Nc3ccc(F)c(Cl)c3)c2cc1OCCOCCOCCOCCNC(=O)COc1c(Br)cc(/C=C2\C(=O)Nc3ccc(Br)cc32)cc1Br	> 10 µM	3.84 µM	5.12 µM	2.54 µM	> 10 µM	Non-Toxic	Active	2.77 µM				
COc1cc2ncnc(Nc3ccc(F)c(Cl)c3)c2cc1OCCOCCOCCNC(=O)COc1c(Br)cc(/C=C2\C(=O)Nc3ccc(C)cc32)cc1Br	> 10 µM	0.862 µM	1.36 µM	1.83 µM	> 10 µM	Non-Toxic	Active	> 10 µM				
COc1cc2ncnc(Nc3ccc(F)c(Cl)c3)c2cc1OCCOCCOCCOCCOCCNC(=O)COc1c(Br)cc(/C=C2\C(=O)Nc3ccc(I)cc32)cc1Br	> 10 µM	1.15 µM	6.76 µM	4.14 µM	> 10 µM	Non-Toxic		5.81 µM				
COc1cc2ncnc(Nc3ccc(F)c(Cl)c3)c2cc1OCCOCCOCCOCCNC(=O)COc1c(Br)cc(/C=C2\C(=O)Nc3ccc(C)cc32)cc1Br	> 10 µM	0.937 µM	3.78 µM	1.13 µM	> 10 µM	Non-Toxic	Active	> 10 µM				
COc1cc2ncnc(Nc3ccc(F)c(Cl)c3)c2cc1OCCCN1CCOCC1										inactive		
COc1cc2ncnc(Nc3ccc(F)c(Cl)c3)c2cc1OCCOCCNC(=O)COc1c(Br)cc(/C=C2\C(=O)Nc3ccc(Cl)cc32)cc1Br	> 10 µM	5.87 µM	> 10 µM	4.58 µM	> 10 µM	Non-Toxic	Active	0.94 µM				
COc1cc2ncnc(Nc3ccc(F)c(Cl)c3)c2cc1OCCOCCOCCOCCNC(=O)COc1c(Br)cc(/C=C2\C(=O)Nc3ccc(Cl)cc32)cc1Br	> 10 µM	> 10 µM	7.72 µM	4.85 µM	> 10 µM	Non-Toxic		> 10 µM			9.1%	
COc1cc2ncnc(Nc3ccc(F)c(Cl)c3)c2cc1OCCCCCCCCNC(=O)COc1c(Br)cc(/C=C2\C(=O)Nc3ccc(I)cc32)cc1Br	> 10 µM	2.19 µM	> 10 µM	6.5 µM	> 10 µM	Non-Toxic		> 10 µM				9.1%
COc1cc2ncnc(Nc3ccc(F)c(Cl)c3)c2cc1OCCCCNC(=O)COc1c(Br)cc(/C=C2\C(=O)Nc3ccc(I)cc32)cc1Br	> 10 µM	0.21 µM	> 10 µM	6.04 µM	> 10 µM	Non-Toxic		> 10 µM	5.8%			
